Data published in US10035801B2, “Pyrazolo compounds and uses thereof” (CONSTELLATION PHARMACEUTICALS, INC., priority 2013, dated 2018).

target: T1, KDM5A (Homo sapiens, UniProt P29375); assay: KDM5 enzyme assay, KDM5A HTRF (Example 463); type: biochemical; conditions: compounds of Examples 1-432; read-out: Example 463 Assay KDM5A HTRF IC50
T1 construct: Full length KDM5A enzyme was expressed and purified inhouse; made in house
T1 sequence (P29375 whole entry): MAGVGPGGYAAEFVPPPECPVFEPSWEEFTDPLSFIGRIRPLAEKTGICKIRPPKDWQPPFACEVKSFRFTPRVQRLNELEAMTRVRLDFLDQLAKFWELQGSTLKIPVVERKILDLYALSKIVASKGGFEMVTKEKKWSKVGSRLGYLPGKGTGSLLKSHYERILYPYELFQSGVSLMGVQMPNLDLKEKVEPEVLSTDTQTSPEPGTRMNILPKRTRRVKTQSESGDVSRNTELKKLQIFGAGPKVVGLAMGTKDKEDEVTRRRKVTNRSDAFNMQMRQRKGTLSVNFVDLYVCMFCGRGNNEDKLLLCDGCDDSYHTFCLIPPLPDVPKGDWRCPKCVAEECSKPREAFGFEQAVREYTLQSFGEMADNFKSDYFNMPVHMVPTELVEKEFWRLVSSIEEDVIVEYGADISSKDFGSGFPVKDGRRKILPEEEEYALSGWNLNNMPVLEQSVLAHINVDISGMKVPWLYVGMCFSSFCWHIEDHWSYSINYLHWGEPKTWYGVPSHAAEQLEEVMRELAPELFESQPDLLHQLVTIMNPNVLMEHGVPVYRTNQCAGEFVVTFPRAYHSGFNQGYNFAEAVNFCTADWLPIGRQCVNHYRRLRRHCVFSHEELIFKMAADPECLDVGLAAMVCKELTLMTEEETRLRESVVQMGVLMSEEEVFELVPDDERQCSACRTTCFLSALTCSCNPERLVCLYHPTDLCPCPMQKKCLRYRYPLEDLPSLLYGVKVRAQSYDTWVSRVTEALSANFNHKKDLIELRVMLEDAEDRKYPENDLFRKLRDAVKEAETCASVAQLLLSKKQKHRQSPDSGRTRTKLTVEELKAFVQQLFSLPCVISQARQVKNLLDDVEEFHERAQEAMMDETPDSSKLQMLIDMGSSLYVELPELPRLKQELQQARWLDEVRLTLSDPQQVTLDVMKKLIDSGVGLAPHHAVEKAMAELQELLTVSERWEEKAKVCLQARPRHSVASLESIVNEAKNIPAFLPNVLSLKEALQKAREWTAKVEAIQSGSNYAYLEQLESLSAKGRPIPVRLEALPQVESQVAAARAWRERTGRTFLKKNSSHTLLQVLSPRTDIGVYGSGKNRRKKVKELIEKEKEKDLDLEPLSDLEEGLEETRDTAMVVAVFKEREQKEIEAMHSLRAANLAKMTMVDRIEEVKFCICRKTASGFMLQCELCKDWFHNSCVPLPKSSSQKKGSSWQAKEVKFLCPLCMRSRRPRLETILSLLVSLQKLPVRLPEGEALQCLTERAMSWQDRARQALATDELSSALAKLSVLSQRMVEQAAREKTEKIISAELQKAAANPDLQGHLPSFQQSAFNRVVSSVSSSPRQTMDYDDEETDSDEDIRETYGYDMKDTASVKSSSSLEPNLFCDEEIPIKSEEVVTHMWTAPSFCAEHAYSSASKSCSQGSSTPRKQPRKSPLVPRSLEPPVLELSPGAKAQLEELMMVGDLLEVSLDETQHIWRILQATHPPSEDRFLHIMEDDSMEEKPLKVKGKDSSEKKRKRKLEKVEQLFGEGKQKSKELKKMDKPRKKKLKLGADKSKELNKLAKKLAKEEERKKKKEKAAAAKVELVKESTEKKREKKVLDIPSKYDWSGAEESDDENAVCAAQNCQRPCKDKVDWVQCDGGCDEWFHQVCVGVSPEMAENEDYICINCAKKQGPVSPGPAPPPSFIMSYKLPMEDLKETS

SMILES | IC50 [nM]
CC(C)c1c(-c2cccc(-c3cccc(C#N)c3)c2)[nH]c2c(C#N)cnn2c1=O [Compound 427] | 39
CC(C)c1c(-c2cccc(-c3ccc(NS(C)(=O)=O)cc3)c2)[nH]c2c(C#N)cnn2c1=O [Compound 429] | 27
CNS(=O)(=O)c1ccc(-c2cccc(-c3[nH]c4c(C#N)cnn4c(=O)c3C(C)C)c2)cc1 [Compound 430] | 32
CC(C)n1cc(-c2[nH]c3c(C#N)cnn3c(=O)c2C2(C)CCC2)cn1 [Compound 432] | 56
CC(C)c1c(-c2ccoc2)n(C)c2c(C#N)cnn2c1=O [Example 4, 5-(furan-3-yl)-6-isopropyl-4-methyl-7-oxo-4,7-dihydropyrazolo[1,5-a]pyrimidine-3-carbonitrile] | 65
CC(C)c1c(-c2cnn(C3(C)CC3)c2)[nH]c2c(C#N)cnn2c1=O [Example 7, 6-Isopropyl-5-(1-(1-methylcyclopropyl)-1H-pyrazol-4-yl)-7-oxo-4,7-dihydropyrazolo[1,5-a]pyrimidine-3-carbonitrile] | 30
CC(C)c1c(-c2cnn(C(C)(C)c3ccccc3)c2)[nH]c2c(C#N)cnn2c1=O [Example 9, 6-Isopropyl-7-oxo-5-(1-(2-phenylpropan-2-yl)-1H-pyrazol-4-yl)-4,7-dihydropyrazolo[1,5-a]pyrimidine-3-carbonitrile] | 40
CC(C)c1c(-c2cnn(-c3cccnc3)c2)[nH]c2c(C#N)cnn2c1=O [Example 10, 6-Isopropyl-7-oxo-5-(1-(pyridin-3-yl)-1H-pyrazol-4-yl)-4,7-dihydropyrazolo[1,5-a]pyrimidine-3-carbonitrile] | 24
CNC(=O)C(C)(C)n1cc(-c2[nH]c3c(C#N)cnn3c(=O)c2C(C)C)cn1 [Example 13, 2-(4-(3-Cyano-6-isopropyl-7-oxo-4,7-dihydropyrazolo[1,5-a]pyrimidin-5-yl)-1H-pyrazol-1-yl)-N,2-dimethylpropanamide] | 23
CC(C)c1c(-c2cnn(C3CCSCC3)c2)[nH]c2c(C#N)cnn2c1=O [Example 17, 6-isopropyl-7-oxo-5-(1-(tetrahydro-2H-thiopyran-4-yl)-1H-pyrazol-4-yl)-4,7-dihydropyrazolo[1,5-a]pyrimidine-3-carbonitrile] | 41
CC(=O)/C=C/c1cccc(Cn2cc(-c3[nH]c4c(C#N)cnn4c(=O)c3C(C)C)cn2)n1 [Example 19, (E)-6-isopropyl-7-oxo-5-(1-((6-(3-oxobut-1-en-1-yl)pyridin-2-yl)methyl)-1H-pyrazol-4-yl)-4,7-dihydropyrazolo[1,5-a]pyrimidine-3-carbonitrile] | 55
CCc1c[nH]c2c(C#N)cnn2c1=O [Example 20, 6-Ethyl-7-oxo-4,7-dihydropyrazolo[1,5-a]pyrimidine-3-carbonitrile] | 37
CC(C)(C)c1c[nH]c2c(C#N)cnn2c1=O [Example 21, 6-(tert-Butyl)-7-oxo-4,7-dihydropyrazolo[1,5-a]pyrimidine-3-carbonitrile] | 38
CCc1c(C(=O)O)[nH]c2c(C#N)cnn2c1=O [Example 25, 3-cyano-6-ethyl-7-oxo-4,7-dihydropyrazolo[1,5-a]pyrimidine-5-carb oxylic acid] | 220
CCc1c(C(N)=O)n(C)c2c(C#N)cnn2c1=O [Example 26, 3-cyano-6-ethyl-4-methyl-7-oxo-4,7-dihydropyrazolo[1,5-a]pyrimidine-5-carboxamide] | 4400
CCc1c(C(=O)NC)n(C)c2c(C#N)cnn2c1=O [Example 27, 3-cyano-6-ethyl-N,4-dimethyl-7-oxo-4,7-dihydropyrazolo[1,5-a]pyrimidine-5-carboxamide] | 3900
CCc1c(C(=O)NCC(=O)c2ccccc2)[nH]c2c(C#N)cnn2c1=O [Example 31, 3-cyano-6-ethyl-7-oxo-N-(2-oxo-2-phenylethyl)-4,7-dihydropyrazolo[1,5-a]pyrimidine-5-carboxamide] | 25
N#Cc1cnn2c(=O)c(C3CCC3)c(-c3cn[nH]c3)[nH]c12 [Example 35, 6-Cyclobutyl-7-oxo-5-(1H-pyrazol-4-yl)-4H-pyrazolo[1,5-a]pyrimidine-3-carbonitrile] | 30
C#CCc1c(-c2ccccc2)[nH]c2c(C#N)cnn2c1=O [Example 37, 7-Oxo-5-phenyl-6-(prop-2-yn-1-yl)-4,7-dihydropyrazolo[1,5-a]pyrimidine-3-carbonitrile] | 24
C#CC(C)c1c(-c2cnn(C(C)C)c2)[nH]c2c(C#N)cnn2c1=O (stereo not drawn) [Example 38, 5-(1-isopropylpyrazol-4-yl)-6-(1-methylprop-2-ynyl)-7-oxo-4H-pyrazolo[1,5-a]pyrimidine-3-carbonitrile] | 36

The remaining compounds from weak to strong by IC50, led by results:

IC50 [nM] | SMILES
23 | CCc1c(-c2cccc(/C=C/c3ccccc3)c2)[nH]c2c(C#N)cnn2c1=O [Compound 426]
22 | CC(C)c1c(-c2cn(C(C)C)nc2F)[nH]c2c(C#N)cnn2c1=O [Example 8, 5-(3-Fluoro-1-isopropyl-1H-pyrazol-4-yl)-6-isopropyl-7-oxo-4,7-dihydropyrazolo[1,5-a]pyrimidine-3-carbonitrile]
21 | CC(C)n1cc(-c2[nH]c3c(C#N)cnn3c(=O)c2C2CCC2)cn1 [Compound 431]
21 | CC(C)c1c(-c2cnn(C3CCS(=O)(=O)CC3)c2)[nH]c2c(C#N)cnn2c1=O [Example 18, 5-(1-(1,1-Dioxidotetrahydro-2H-thiopyran-4-yl)-1H-pyrazol-4-yl)-6-isopropyl-7-oxo-4,7-dihydropyrazolo[1,5-a]pyrimidine-3-carbonitrile]
20 | CCc1c(-c2cccc(N3CCC(c4ccccc4)C3=O)c2)[nH]c2c(C#N)cnn2c1=O (stereo not drawn) [Compound 423]
18 | CC(C)c1c(-c2cnn(-c3ccccn3)c2)[nH]c2c(C#N)cnn2c1=O [Example 12, 6-Isopropyl-7-oxo-5-(1-(pyridin-2-yl)-1H-pyrazol-4-yl)-4,7-dihydropyrazolo[1,5-a]pyrimidine-3-carbonitrile]
18 | CCc1c(-c2nc(C)no2)[nH]c2c(C#N)cnn2c1=O [Example 28, 6-ethyl-5-(3-methyl-1,2,4-oxadiazol-5-yl)-7-oxo-4H-pyrazolo[1,5-a]pyrimidine-3-carbonitrile]
16 | C=CCc1c(-c2cnn(C(C)C)c2)[nH]c2c(C#N)cnn2c1=O [Compound 425]
16 | CCc1c(-c2nnc(C)o2)[nH]c2c(C#N)cnn2c1=O [Example 29, 6-ethyl-5-(5-methyl-1,3,4-oxadiazol-2-yl)-7-oxo-4,7-dihydropyrazolo[1,5-a]pyrimidine-3-carbonitrile]
15 | CCc1c(-c2ncc(-c3ccccc3)o2)[nH]c2c(C#N)cnn2c1=O [Example 32, 6-ethyl-7-oxo-5-(5-phenyloxazol-2-yl)-4,7-dihydropyrazolo[1,5-a]pyrimidine-3-carbonitrile]
14 | CC(C)c1c(-c2cccc(-c3cccc(NS(C)(=O)=O)c3)c2)[nH]c2c(C#N)cnn2c1=O [Compound 428]
14 | CC(C)c1c(-c2cnn(-c3ccncc3)c2)[nH]c2c(C#N)cnn2c1=O [Example 11, 6-Isopropyl-7-oxo-5-(1-(pyridin-4-yl)-1H-pyrazol-4-yl)-4,7-dihydropyrazolo[1,5-a]pyrimidine-3-carbonitrile]
13 | CC(C)c1c(-c2cnn(CC3CC3)c2)[nH]c2c(C#N)cnn2c1=O [Example 6, 5-(1-(Cyclopropylmethyl)-1H-pyrazol-4-yl)-6-isopropyl-7-oxo-4,7-dihydropyrazolo[1,5-a]pyrimidine-3-carbonitrile]
12 | CCc1c(-c2ncc[nH]2)[nH]c2c(C#N)cnn2c1=O [Example 30, 6-ethyl-5-(1H-imidazol-2-yl)-7-oxo-4,7-dihydropyrazolo[1,5-a]pyrimidine-3-carbonitrile]
10.4 | N#Cc1cnn2c(=O)c(C3CCC3)c(-c3cnn(C4CCCCC4)c3)[nH]c12 [Example 36, 6-Cyclobutyl-5-(1-cyclohexylpyrazol-4-yl)-7-oxo-4H-pyrazolo[1,5-a]pyrimidine-3-carbonitrile]
9.8 | CC(C)c1c(CCc2ccccc2)[nH]c2c(C#N)cnn2c1=O [Example 23, 6-isopropyl-7-oxo-5-phenethyl-4,7-dihydropyrazolo[1,5-a]pyrimidine-3-carbonitrile]
9.5 | N#Cc1cnn2c(=O)c(C3CCC3)c(-c3ccccc3)[nH]c12 [Example 34, 6-Cyclobutyl-7-oxo-5-phenyl-4H-pyrazolo[1,5-a]pyrimidine-3-carbonitrile]
9.3 | N#Cc1cnn2c(=O)c(CC(F)F)c(-c3ccccc3)[nH]c12 [Example 33, 6-(2,2-Difluoroethyl)-7-oxo-5-phenyl-4H-pyrazolo[1,5-a]pyrimidine-3-carbonitrile]
8 | CC(C)c1c(-c2cccc(N3CCC(c4ccccc4)C3=O)c2)[nH]c2c(C#N)cnn2c1=O (stereo not drawn) [Compound 424]
7 | CCc1c(-c2cccc(I)c2)[nH]c2c(C#N)cnn2c1=O [Example 24, 6-ethyl-5-(3-iodophenyl)-7-oxo-4,7-dihydropyrazolo[1,5-a]pyrimidine-3-carbonitrile]
5.5 | CC(C)c1c(-c2cn[nH]c2)[nH]c2c(C#N)cnn2c1=O [Example 5, 6-Isopropyl-7-oxo-5-(1H-pyrazol-4-yl)-4,7-dihydropyrazolo[1,5-a]pyrimidine-3-carbonitrile]
5.3 | CC(C)c1c(-c2cnn(C(C)C)c2F)[nH]c2c(C#N)cnn2c1=O [Example 14, 5-(5-Fluoro-1-isopropyl-1H-pyrazol-4-yl)-6-isopropyl-7-oxo-4,7-dihydropyrazolo[1,5-a]pyrimidine-3-carbonitrile]
4.3 | CC(C)c1c(Cl)[nH]c2c(C#N)cnn2c1=O [Example 1, 5-chloro-6-isopropyl-7-oxo-4,7-dihydropyrazolo[1,5-a]pyrimidine-3-carbonitrile]
3.8 | CC(C)c1c(-c2ccoc2)[nH]c2c(C#N)cnn2c1=O [Example 3, 5-(furan-3-yl)-6-isopropyl-7-oxo-4,7-dihydropyrazolo[1,5-a]pyrimidine-3-carbonitrile]
3 | CCc1c(Cl)[nH]c2c(C#N)cnn2c1=O [Example 2, 5-chloro-6-ethyl-7-oxo-4,7-dihydropyrazolo[1,5-a]pyrimidine-3-carbonitrile]
